This note sets out measurements from patent publication US20250034216A1, “STEREOSELECTIVE COVALENT LIGANDS FOR ONCOGENIC AND IMMUNOLOGICAL PROTEINS” (The Scripps Research Institute, priority 2021, published 2025).

Common to all, as to assay: IA-DTB cysteine engagement
Common to all, as to format: binding
Common to all, as to conditions: 22Rv1 cells, 20 μM probe, 1 h, relative to DMSO

In one test the target is T1, CEP128_C915 (Homo sapiens, UniProt Q6ZU80).
T1 construct: endogenous in cells; host or cells: 22Rv1
T1 sequence (Q6ZU80 1-1094): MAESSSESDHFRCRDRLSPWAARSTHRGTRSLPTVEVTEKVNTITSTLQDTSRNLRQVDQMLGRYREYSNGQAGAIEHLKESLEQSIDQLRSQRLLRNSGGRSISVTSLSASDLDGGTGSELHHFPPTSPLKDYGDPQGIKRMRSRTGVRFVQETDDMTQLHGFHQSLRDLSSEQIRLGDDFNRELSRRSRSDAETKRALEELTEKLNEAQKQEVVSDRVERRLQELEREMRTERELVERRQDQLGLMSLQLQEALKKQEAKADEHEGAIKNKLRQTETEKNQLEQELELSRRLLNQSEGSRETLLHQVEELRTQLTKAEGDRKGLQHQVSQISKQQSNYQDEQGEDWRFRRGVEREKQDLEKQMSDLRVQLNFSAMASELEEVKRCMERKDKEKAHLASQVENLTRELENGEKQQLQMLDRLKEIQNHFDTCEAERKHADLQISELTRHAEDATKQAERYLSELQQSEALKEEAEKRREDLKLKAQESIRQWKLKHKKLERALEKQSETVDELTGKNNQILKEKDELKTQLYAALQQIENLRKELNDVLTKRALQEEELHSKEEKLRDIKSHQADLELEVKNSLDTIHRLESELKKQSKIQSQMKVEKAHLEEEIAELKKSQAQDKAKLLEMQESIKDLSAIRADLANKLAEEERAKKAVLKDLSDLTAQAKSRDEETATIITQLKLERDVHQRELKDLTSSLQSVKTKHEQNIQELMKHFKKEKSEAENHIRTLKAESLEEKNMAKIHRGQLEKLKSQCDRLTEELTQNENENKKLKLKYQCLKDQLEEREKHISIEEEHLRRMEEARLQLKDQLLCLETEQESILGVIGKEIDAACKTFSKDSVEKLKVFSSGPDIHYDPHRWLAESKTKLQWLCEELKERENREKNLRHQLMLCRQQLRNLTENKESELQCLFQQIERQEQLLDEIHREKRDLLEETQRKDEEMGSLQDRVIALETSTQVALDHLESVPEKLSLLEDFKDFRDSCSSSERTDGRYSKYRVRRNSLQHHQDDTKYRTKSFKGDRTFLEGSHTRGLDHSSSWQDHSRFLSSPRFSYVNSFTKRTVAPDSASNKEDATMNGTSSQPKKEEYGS
In outline: (§1)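 Cells were treated in situ with electrophilic probes, then lysed, and the lysates (2 mg/mL protein) were labeled with IA-DTB for 1 h at ambient temperature. After reduction, alkylation and trypsin digestion, labeled peptides were streptavidin-enriched, TMT-labeled and fractionated. Engagement ratios are probe vs DMSO reporter intensities, averaged across replicates.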

The target of another test is T2, HIRA_C673 (Homo sapiens, UniProt P54198).
T2 construct: endogenous in cells; host or cells: 22Rv1
An outline of the steps: as §1

For the next test, the target named is T3, MGST3_C56 (Homo sapiens, UniProt O14880).
T3 construct: endogenous in cells; host or cells: 22Rv1
In outline:
as §1

Another test addresses T4, CRYBG1_C1574 (Homo sapiens, UniProt Q9Y4K1).
T4 construct: endogenous in cells; host or cells: 22Rv1
An outline of the steps:
as §1

T3 sequence (O14880 whole entry): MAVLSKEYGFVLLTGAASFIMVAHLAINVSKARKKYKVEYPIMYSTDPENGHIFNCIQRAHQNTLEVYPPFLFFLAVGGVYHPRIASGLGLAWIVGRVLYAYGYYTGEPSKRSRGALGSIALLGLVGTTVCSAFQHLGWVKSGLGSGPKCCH
T2 sequence (P54198 whole entry): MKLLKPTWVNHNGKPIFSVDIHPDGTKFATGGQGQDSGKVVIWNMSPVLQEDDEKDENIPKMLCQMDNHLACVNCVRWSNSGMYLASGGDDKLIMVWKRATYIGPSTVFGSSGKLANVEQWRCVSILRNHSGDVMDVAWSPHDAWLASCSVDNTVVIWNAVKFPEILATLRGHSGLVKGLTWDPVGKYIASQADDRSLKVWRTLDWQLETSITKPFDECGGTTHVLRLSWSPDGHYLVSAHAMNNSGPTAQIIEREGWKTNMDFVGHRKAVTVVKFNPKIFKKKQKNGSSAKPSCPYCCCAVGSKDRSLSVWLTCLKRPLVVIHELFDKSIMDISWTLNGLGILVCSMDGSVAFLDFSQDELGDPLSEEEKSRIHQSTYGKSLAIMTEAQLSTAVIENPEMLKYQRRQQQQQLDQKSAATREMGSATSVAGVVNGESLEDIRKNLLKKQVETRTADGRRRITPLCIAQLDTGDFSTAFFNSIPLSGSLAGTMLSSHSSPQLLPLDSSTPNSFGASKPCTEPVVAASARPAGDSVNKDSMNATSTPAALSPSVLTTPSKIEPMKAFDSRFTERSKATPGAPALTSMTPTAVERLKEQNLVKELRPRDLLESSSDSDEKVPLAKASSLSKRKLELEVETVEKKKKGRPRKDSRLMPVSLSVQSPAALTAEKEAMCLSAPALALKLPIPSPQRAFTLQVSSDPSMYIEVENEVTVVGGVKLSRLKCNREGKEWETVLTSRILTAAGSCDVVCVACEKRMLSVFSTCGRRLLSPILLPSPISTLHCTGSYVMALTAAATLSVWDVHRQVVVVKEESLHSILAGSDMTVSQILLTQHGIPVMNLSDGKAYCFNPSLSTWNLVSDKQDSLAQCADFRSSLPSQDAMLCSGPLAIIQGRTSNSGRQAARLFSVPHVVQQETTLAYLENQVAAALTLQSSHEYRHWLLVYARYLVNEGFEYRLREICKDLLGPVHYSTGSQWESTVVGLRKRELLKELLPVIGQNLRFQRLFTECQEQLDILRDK
T4 sequence (Q9Y4K1 whole entry): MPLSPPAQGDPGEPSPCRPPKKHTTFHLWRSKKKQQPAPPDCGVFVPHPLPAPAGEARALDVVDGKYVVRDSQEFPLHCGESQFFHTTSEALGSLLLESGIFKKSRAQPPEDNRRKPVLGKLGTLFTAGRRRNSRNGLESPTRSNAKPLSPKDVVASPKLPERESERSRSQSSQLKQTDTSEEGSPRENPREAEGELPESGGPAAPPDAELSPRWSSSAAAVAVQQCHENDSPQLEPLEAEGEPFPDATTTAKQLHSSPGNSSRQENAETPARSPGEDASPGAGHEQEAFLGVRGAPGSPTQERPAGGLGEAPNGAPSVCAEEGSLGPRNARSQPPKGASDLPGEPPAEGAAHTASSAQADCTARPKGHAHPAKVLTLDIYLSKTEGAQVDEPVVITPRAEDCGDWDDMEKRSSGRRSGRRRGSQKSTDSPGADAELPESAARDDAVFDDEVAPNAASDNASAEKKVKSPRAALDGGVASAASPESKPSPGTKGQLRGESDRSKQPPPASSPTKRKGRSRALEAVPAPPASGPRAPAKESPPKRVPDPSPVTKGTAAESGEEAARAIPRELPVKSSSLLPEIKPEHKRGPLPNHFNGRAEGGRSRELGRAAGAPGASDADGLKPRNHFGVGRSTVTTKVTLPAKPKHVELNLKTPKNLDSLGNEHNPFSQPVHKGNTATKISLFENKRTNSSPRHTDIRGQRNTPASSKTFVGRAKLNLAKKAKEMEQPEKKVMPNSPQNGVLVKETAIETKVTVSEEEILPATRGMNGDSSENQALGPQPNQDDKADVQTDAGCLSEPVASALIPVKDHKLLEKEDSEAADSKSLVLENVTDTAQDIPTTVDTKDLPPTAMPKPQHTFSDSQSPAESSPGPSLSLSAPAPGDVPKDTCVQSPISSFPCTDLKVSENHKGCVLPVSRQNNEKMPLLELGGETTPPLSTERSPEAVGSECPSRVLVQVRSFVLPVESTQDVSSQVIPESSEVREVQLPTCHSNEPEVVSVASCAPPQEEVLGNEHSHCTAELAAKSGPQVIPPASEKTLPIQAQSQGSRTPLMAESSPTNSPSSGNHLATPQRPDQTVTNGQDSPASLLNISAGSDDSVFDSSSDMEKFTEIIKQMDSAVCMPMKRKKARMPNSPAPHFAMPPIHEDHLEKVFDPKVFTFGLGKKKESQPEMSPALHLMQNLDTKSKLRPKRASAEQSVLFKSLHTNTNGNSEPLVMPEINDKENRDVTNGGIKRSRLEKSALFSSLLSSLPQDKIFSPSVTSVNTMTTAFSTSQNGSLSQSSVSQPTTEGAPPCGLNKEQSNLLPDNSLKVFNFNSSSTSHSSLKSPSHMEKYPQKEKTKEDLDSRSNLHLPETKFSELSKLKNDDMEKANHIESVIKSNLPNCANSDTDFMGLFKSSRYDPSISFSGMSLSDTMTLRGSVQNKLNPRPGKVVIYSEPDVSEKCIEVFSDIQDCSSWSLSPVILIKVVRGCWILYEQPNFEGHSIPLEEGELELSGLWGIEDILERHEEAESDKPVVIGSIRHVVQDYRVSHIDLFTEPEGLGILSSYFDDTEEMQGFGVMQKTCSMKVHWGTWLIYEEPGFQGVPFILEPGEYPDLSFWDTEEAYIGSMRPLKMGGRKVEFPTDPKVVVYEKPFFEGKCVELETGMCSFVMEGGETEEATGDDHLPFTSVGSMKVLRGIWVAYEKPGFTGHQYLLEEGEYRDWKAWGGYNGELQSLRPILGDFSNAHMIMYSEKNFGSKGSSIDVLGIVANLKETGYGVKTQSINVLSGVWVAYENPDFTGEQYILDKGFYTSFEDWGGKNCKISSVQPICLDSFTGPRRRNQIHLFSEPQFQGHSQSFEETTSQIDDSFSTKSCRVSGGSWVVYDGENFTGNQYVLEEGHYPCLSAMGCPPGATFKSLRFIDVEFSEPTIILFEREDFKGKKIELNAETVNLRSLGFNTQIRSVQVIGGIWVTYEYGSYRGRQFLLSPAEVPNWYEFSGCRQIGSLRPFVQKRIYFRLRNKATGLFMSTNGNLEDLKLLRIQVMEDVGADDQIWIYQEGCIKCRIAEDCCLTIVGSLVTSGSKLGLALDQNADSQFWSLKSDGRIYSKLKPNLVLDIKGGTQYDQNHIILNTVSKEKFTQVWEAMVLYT

Consider `C=CC(=O)N1C[C@H](c2ccc(Br)cc2)[C@@H]1C(=O)Nc1cccc2cccnc12` [MY-1B, (2R,3S)-1-acryloyl-3-(4-bromophenyl)-N-(quinolin-8-yl)azetidine-2-carboxamide], for which the “% engagement CEP128_C915” value on CEP128_C915 stood at 67.5%. Moreover, on HIRA_C673, the “% engagement HIRA_C673” value came out at 3%. Also, the “% engagement MGST3_C56” value at MGST3_C56 amounted to 58%. For the same molecule, on CRYBG1_C1574, the “% engagement CRYBG1_C1574” value was found to be 72%.
As for `C=CC(=O)N1C[C@H](c2ccc(Br)cc2)[C@H]1C(=O)Nc1cccc2cccnc12` [MY-3B, (2S,3S)-1-acryloyl-3-(4-bromophenyl)-N-(quinolin-8-yl)azetidine-2-carboxamide], the “% engagement CEP128_C915” value at CEP128_C915 came out at 25%. The “% engagement HIRA_C673” value at HIRA_C673 is 73%. Further, the “% engagement MGST3_C56” value on MGST3_C56 is 73.5%. Also, the “% engagement CRYBG1_C1574” value at CRYBG1_C1574 came out at 13.5%.
For `C=CC(=O)N1C[C@H](c2ccc(Br)cc2)[C@H]1C(=O)Nc1cccc2cccnc12` [MY-3A, (2S,3S)-1-acryloyl-3-(4-bromophenyl)-N-(quinolin-8-yl)azetidine-2-carboxamide], the “% engagement CEP128_C915” value on CEP128_C915 was 7%. For the same molecule, on HIRA_C673, the “% engagement HIRA_C673” value stood at 11.5%. For the same molecule, the “% engagement MGST3_C56” value at MGST3_C56 is recorded as 63.5%. In addition, the “% engagement CRYBG1_C1574” value on CRYBG1_C1574 was determined as 28.5%.
For `C=CC(=O)N1C[C@@H](c2ccc(Br)cc2)[C@H]1C(=O)Nc1cccc2cccnc12` [MY-1A, (2S,3R)-1-acryloyl-3-(4-bromophenyl)-N-(quinolin-8-yl)azetidine-2-carboxamide], in that order: −13%, −12%, 58.75% and 23%.
